Measurements reported in article PMC12680612, “Metabolic engineering and late-stage functionalization expand the chemical space of the antimalarial premarineosin A” (Communications Chemistry, 2025).
Where two headings read alike, the source gives them in different places.

Legend:
[1] = tested on: Plasmodium falciparum Dd2 (chloroquine-resistant); assay: In vitro antimalarial growth inhibition assay (SYBR green), Dd2; type: cell-based; conditions: for EC50: Plasmodium falciparum, read-out: In vitro activity EC50 ± SD P. falciparum Dd2; for Fold more potent than chloroquine, Dd2: Dd2, versus chloroquine
Procedure: (§1) The antimalarial growth inhibition assay was performed as described previously. Briefly, the Plasmodium falciparum Dd2 and 3D7 parasites were diluted to 0.75% parasitemia with 2% hematocrit, and 50 μL diluted parasites were added to each well in a 96-well plate containing 50 μL of properly diluted drugs. Tested compounds were threefold diluted in triplicate with concentrations ranging from 20 – 0.001 µM/10 – 0.0005 µM. The parasites were incubated with the drug at 37 °C under mixed gas (5% O2, 5% CO2, and 90% N2) conditions for 48 h. DNA was released from the cultured parasite and stained with SYBR green dye. The plate was placed in the dark with gentle agitation for 1 h, and signals were read in a FLUOstar OPTIMA reader (BMG Labtech, Germany). Data from the microplate reader were analyzed as described previously[68] and plotted using Prism 9.0 software (GraphPad Software, Inc., San Diego, CA). Each in vitro experiment was performed in triplicate wells and repeated twice. Response Curves (CRCs) were plotted in GraphPad Prism (GraphPad Software, Inc.) with error bars representing the standard deviation of three replicate wells (Supplementary Fig. 10).

[2] = tested on: Plasmodium falciparum 3D7 (chloroquine-sensitive); assay: In vitro antimalarial growth inhibition assay (SYBR green), 3D7; type: cell-based; conditions: for EC50: Plasmodium falciparum
Procedure: as §1, with “Briefly, the Plasmodium falciparum Dd2 and 3D7 parasites were diluted to 0.75% parasitemia with 2% hematocrit, and 50 μL diluted parasites were added to each well in a 96-well plate containing 50 μL of properly diluted drugs.” left out

[3] = CellTiter-Glo cell viability assay (cytotoxicity), MOLT4; type: cell-based; conditions: human, MOLT4, 72 h treatment, read-out: In vitro cytotoxicity EC50 ± SD MOLT4
Procedure: (§2) Cells were obtained from the following sources: HEK293 (ATCC, cat # CRL-1573), MOLT-4 (ATCC, cat # CRL-1582). Cell lines were routinely tested for Mycoplasma contamination with the MycoAlert PLUS Mycoplasma Detection Kit (Lonza Bioscience, cat # LT07) according to manufacturer protocol. Cell number and cell viability were measured using the Countess Automated Cell Counter (Invitrogen) using Trypan blue stain (Invitrogen, cat # T10282). Human embryonic kidney HEK293 cells were maintained in DMEM with high glucose and GlutaMAX (Gibco, cat # 10566016) supplemented with 10% HyClone Characterized Fetal Bovine Serum (Cytiva, cat # SH30071.03), and 100 µ mL^−1 Penicillin-Streptomycin (Gibco, cat # 15140122). Human T lymphoblast MOLT-4 cells were maintained in RPMI 1640 Medium (Gibco, cat # 11875093) supplemented with 10% HyClone Characterized Fetal Bovine Serum (Cytiva, cat # SH30071.03), 100 µ mL^−1 Penicillin-Streptomycin (Gibco, cat # 15140122), and 10 mM HEPES (Gibco, 15630080). Cells were cultured in incubators maintained at 37 °C with 5% CO2 and 95% relative humidity.
(§3) The CTG assay (Promega, cat # G7572) was used to quantify cellular ATP according to manufacturer protocols. The Multidrop Combi liquid dispenser (ThermoFisher) was used to dispense 4 µL of cells into white 1536-well microplates (Corning, cat # 7464) at a density of 1500 cells/well. Plated cells were incubated overnight. (−)-Premarineosin A (3) and derivatives were transferred into respective wells of each plate at 25 nL/well with the mosquito (SPT Labtech) in 16-pt, 1:3 titrations for a final concentration of 125 µM–8.71 pM for compounds with a high concentration of 20 mM, or 62.5 µM–4.36 pM for compounds with a high concentration of 10 mM. Controls were transferred into respective wells of each plate at 25 nL/well with the mosquito with a 16-pt, 1:2 titration of Digitonin for a final concentration of 125 µM–3.81 nM. The final concentration of DMSO was 0.58%. Cells were incubated for either 24, 48, and 72 h, after which point 3 µL/well of CTG was transferred to each plate with the BioRaptr 2.0 FRD (LetsGoRobotics). Plates were incubated for 10 min in the dark at ambient temperature for 10 min. Luminescence was measured using a ViewLux 1430Ultra HTS (PerkinElmer) with the following optical settings: exposure = 1 s, gain = high, speed = slow, binning = 2X. Dimethyl sulfoxide (“DMSO”; AMRESCO, cat # RGE-3070) was used as a vehicle control. Digitonin (Sigma-Aldrich, cat # D141) was prepared as a 20 mM stock solution in DMSO and stored at −30 °C for use as a cytotoxicity control. (−)-Premarineosin A (3) and derivatives were prepared at either 10 mM or 20 mM stock solutions in DMSO. Data were normalized to 125 µM Digitonin as −100% inhibition in a row-wise manner across the plate. Normalization was performed in Excel (Microsoft) and Concentration Response Curves (CRCs) were plotted in GraphPad Prism (GraphPad Software, Inc.) with error bars representing the standard deviation of four replicate wells (Supplementary Fig. 9).

[4] = tested on: Plasmodium; design: method as in PMID 24575817, PMID 19007176; conditions: cited from earlier work
[5] = CellTiter-Glo cell viability assay (cytotoxicity), HEK293; type: cell-based; conditions: human, HEK293, 72 h treatment, read-out: In vitro cytotoxicity EC50 ± SD HEK293
Procedure: as §2, §3

[6] = Dd2 chloroquine-resistant, 48 h treatment
[7] = 3D7 chloroquine-sensitive, 48 h treatment, read-out: In vitro activity EC50 ± SD P. falciparum 3D7
[8] = 3D7, 48 h, read-out: In vitro activity EC50 ± SD P. falciparum 3D7
[9] = MOLT-4 T-cell leukemia (T lymphoblast) cells
[10] = 3D7 chloroquine-sensitive, 48 h treatment

## C[C@H]1[C@H](OC(=O)CCC(=O)O)O[C@@H]2O[C@@]3(C)CC[C@H]4[C@H](C)CC[C@@H]1[C@@]24OO3 [Artesunate, reference compound]
[1]; [6]
  EC50: 8 ± 2 nM
[2]; [7]
  EC50: 24 ± 6 nM

## CCN(CC)CCCC(C)Nc1ccnc2cc(Cl)ccc12 (stereo not drawn) [Chloroquine, reference compound]
[1]; DD2, 48 h
  EC50: 382 ± 22 nM
[2]; [8]
  EC50: 41 ± 3 nM

## COC1=CC(c2ccc[nH]2)=N[C@@]12O[C@H](C)C[C@H]1CCCCCCCc3ccc([nH]3)[C@@H]12 [compound 3, (−)-premarineosin A]
[1]; Dd2, versus artesunate
  Fold more potent than artesunate, Dd2: 8 fold
[1]
  Fold more potent than chloroquine, Dd2: > 350 fold
[1]; [6]
  EC50: 1 ± 0.7 nM
[3]
  EC50 at 72 h: 1060 ± 336 nM
[4]
  Antimalarial activity in vitro: single-digit nanomolar
[2]; 3D7, versus artesunate
  Fold more potent than artesunate, 3D7: 6 fold
[2]; 3D7, versus chloroquine
  Fold more potent than chloroquine, 3D7: over 10 fold
[2]; [7]
  EC50: 4 ± 0.1 nM
[5]
  EC50 at 72 h: 1470 ± 427 nM

## COC1=CC(c2ccc[nH]2)=N[C@@]12O[C@H](C)C[C@H]1CCCCCCCc3[nH]c(cc3C(C)(C)c3cc4[nH]c3CCCCCCC[C@@H]3C[C@@H](C)O[C@@]5(N=C(c6ccc[nH]6)C=C5OC)[C@@H]43)[C@@H]12 [compound 4, gem-dimethyl-bridged premarineosin A]
[1]; DD2, 48 h
  EC50: 1240 ± 168 nM
[3]
  EC50 at 72 h: 2260 ± 777 nM
[2]; [8]
  EC50: 1890 ± 243 nM
[5]
  EC50 at 72 h: 8290 ± 1660 nM

## COC1=CC(c2ccc[nH]2)=N[C@@]12O[C@H](C)C[C@H]1CCCCCCCc3[nH]c(cc3Cc3cc4[nH]c3CCCCCCC[C@@H]3C[C@@H](C)O[C@@]5(N=C(c6ccc[nH]6)C=C5OC)[C@@H]43)[C@@H]12 [compound 5, Methylene-bridged premarineosin A]
[1]; [6]
  EC50: 548 ± 76 nM
[3]
  EC50 at 72 h: 1160 ± 94 nM
[2]; [7]
  EC50: 1390 ± 265 nM
[5]
  EC50 at 72 h: 8310 ± 1460 nM

## COC1=CC(c2ccc[nH]2)=N[C@@]12O[C@H](C)C[C@H]1CCCCCCCc3[nH]c(cc3C(C)(c3cc4[nH]c3CCCCCCC[C@@H]3C[C@@H](C)O[C@@]5(N=C(c6ccc[nH]6)C=C5OC)[C@@H]43)C(F)(F)F)[C@@H]12 [compound 6, Trifluoromethyl-bridged premarineosin A]
[1]; [6]
  EC50: 2320 ± 448 nM
[3]; [9]
  EC50 at 72 h: 6510 ± 2740 nM
[2]; [7]
  EC50: 5070 ± 1000 nM
[5]; HEK293 embryonic kidney cells
  EC50 at 72 h: 11000 ± 2150 nM

## COC1=CC(c2ccc[nH]2)=N[C@@]12O[C@H](C)C[C@H]1CCCCCCCc3[nH]c(cc3C(C)(O)C(F)(F)F)[C@@H]12 (stereo partly drawn) [compound 7, 12-trifluoropropanol premarineosin A]
[1]; [6]
  In vitro activity EC50 ± SD P. falciparum Dd2: sub-micromolar
  EC50: 87 ± 15 nM
[3]; [9]
  EC50 at 72 h: 1490 ± 388 nM
[2]; [10]
  In vitro activity EC50 ± SD P. falciparum 3D7: sub-micromolar
[2]; [7]
  EC50: 203 ± 10 nM
[5]; HEK293 embryonic kidney cells
  EC50 at 72 h: 4210 ± 481 nM

## COC1=CC(c2ccc[nH]2)=N[C@@]12O[C@H](C)C[C@H]1CCCCCCCc3[nH]c(cc3C=O)[C@@H]12 [compound 8, 12-formyl premarineosin A]
[1]; [6]
  In vitro activity EC50 ± SD P. falciparum Dd2: sub-micromolar
  EC50: 222 ± 53 nM
[3]
  EC50 at 72 h: 6630 ± 836 nM
[2]; [10]
  In vitro activity EC50 ± SD P. falciparum 3D7: sub-micromolar
[2]; [7]
  EC50: 165 ± 55 nM
[5]
  EC50 at 72 h: 7790 ± 1620 nM

## COC1=CC(c2ccc[nH]2)=N[C@@]12O[C@H](C)C[C@H]1CCCCCCCc3[nH]c(cc3C(C)=O)[C@@H]12 [compound 9, 12-acetyl premarineosin A]
[1]; [6]
  In vitro activity EC50 ± SD P. falciparum Dd2: sub-micromolar
  EC50: 180 ± 14 nM
[3]; [9]
  EC50 at 72 h: 3670 ± 1010 nM
[2]; [10]
  In vitro activity EC50 ± SD P. falciparum 3D7: sub-micromolar
[2]; [7]
  EC50: 178 ± 25 nM
[5]; HEK293 embryonic kidney cells
  EC50 at 72 h: 6590 ± 3020 nM

## COC1=CC(c2ccc[nH]2)=N[C@@]12O[C@H](C)C[C@H]1CCCCCCCc3[nH]c(cc3CO)[C@@H]12 [compound 10, 12-hydroxymethyl-premarineosin A]
[1]; [6]
  EC50: 704 ± 304 nM
[3]
  EC50 at 72 h: 19700 ± 1220 nM
[2]; [7]
  EC50: 1230 ± 530 nM
[5]
  EC50 at 72 h: 18400 ± 6700 nM

## COC1=CC(c2ccc(Br)[nH]2)=N[C@@]12O[C@H](C)C[C@H]1CCCCCCCc3ccc([nH]3)[C@@H]12 [compound 11, 1-bromo premarineosin A]
[1]; DD2, 48 h
  EC50: 259 ± 24 nM
[3]
  EC50 at 72 h: 1330 ± 691 nM
[2]; [8]
  EC50: 473 ± 113 nM
[5]
  EC50 at 72 h: 19200 ± 1730 nM

## COC1=CC(c2ccc[nH]2)=N[C@@]12O[C@H](C)C[C@H]1CCCCCCCc3[nH]c(cc3Br)[C@@H]12 [compound 12, 12-bromo premarineosin A]
[1]
  Fold more potent than chloroquine, Dd2: 17 fold
[1]; DD2, 48 h
  EC50: 22 ± 11 nM
[3]
  EC50 at 72 h: 480 ± 84 nM
[2]; [8]
  EC50: 2 nM
[2]; 3D7, read-out: EC50 against P. falciparum
  EC50: < 5 nM
[5]
  EC50 at 72 h: 1630 ± 184 nM
